From patent US7776922B2, “Substituted [(phenylethanoyl)amino]benzamides” (Bayer Schering Pharma Aktiengesellschaft, priority 2004, dated 2010)

Target: T1, human IL8B receptor (Homo sapiens, UniProt P25025)
T1 construct: expressed in transfected cells; host or cells: CHO cells with mitochondrially localized aequorin, co-transfected with G-alpha-16
T1 sequence (P25025 1-360): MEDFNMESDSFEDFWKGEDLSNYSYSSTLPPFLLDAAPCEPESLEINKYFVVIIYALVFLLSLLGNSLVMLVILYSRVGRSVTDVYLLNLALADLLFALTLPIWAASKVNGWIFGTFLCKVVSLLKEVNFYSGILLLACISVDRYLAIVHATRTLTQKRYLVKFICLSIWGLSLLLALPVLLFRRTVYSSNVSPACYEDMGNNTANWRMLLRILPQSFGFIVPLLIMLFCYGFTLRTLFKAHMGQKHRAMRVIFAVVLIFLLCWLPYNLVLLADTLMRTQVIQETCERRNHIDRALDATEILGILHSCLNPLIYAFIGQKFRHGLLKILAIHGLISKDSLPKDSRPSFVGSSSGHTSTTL
Test: Functional reporter assay for IL8B receptor antagonists (aequorin Ca2+ bioluminescence in transfected CHO cells)
Format: cell-based
Conditions: CHO cells with mitochondrially localized aequorin, human IL8B receptor and G-alpha-16; inhibition of IL8-induced Ca2+ transient
Source text: Functional Reporter Assay for High Throughput Screening of IL8B Receptor Antagonists
CHO cells with mitochondrially localized aequorin are stably transfected with the human IL8B receptor and the G-alpha-16 protein. Activation of the IL8B receptor with IL8 or an endogenous P2Y receptor with ATP leads to Ca^2+ release. This intracellular Ca^2+ transient can be detected by bioluminescence with mitochondrially localized aequorin. IL8-induced Ca^2+ transients are inhibited by IL8B receptor antagonists.
2000 cells in 25 μl of complete medium with 10% FCS per well of a 384-well multititer plate are incubated at 37° C. and 5% CO2 for 24 h. After removal of the medium, 30 μl of an 11.8 μM coelenterazine solution in 2 mM Ca-Tyrode are added, and the cells are incubated at 37° C. in 5% CO2 for a further 4 hours. 10 μl of test substance in 2 mM Ca-Tyrode/0.1% BSA are added, and the cells are incubated at room temperature for 5 minutes. The IL8B receptor is activated by adding 25 μl of a 0.78-2.6 nM IL8 solution in 2 mM Ca-Tyrode/0.1% BSA, or the endogenous P2Y receptor is activated by adding 25 μl of a 7.8-26 μM ATP solution in 2 mM Ca-Tyrode. The bioluminescence is recorded at the same time. IC50 values are calculated from dose-response plots using the Marquardt-Levenberg fit (Table A).

Row | Structure (SMILES) | IC50 [µM]
1 | CCC(C(=O)Nc1ccc(-c2cc3ccccc3s2)c(C(N)=O)c1)c1nccs1 (stereo not shown) [Example 26, 2-(1-Benzothien-2-yl)-5-{[2-(1,3-thiazol-2-yl)butanoyl]amino}benzamide] | 0.082
2 | CCC(C(=O)Nc1ccc(-c2ccc(-c3ccccc3)cc2)c(C(N)=O)c1)c1cccs1 (stereo not shown) [Example 29, 4-{[2-(2-Thienyl)butanoyl]amino}-1,1′:4′,1″-terphenyl-2-carboxamide] | 0.092
3 | CCC(C(=O)Nc1ccc(-c2cc3ccccc3s2)c(C(N)=O)c1)c1ccccc1 (single isomer, unassigned) [Example 1-2, 2-(1-Benzothien-2-yl)-5-[(2-phenylbutanoyl)amino]benzamide] | 0.1
4 | CCOc1ccc2cc(-c3ccc(NC(=O)C(CC)c4ccccc4)cc3C(N)=O)ccc2c1 (stereo not shown) [Example 2, 2-(6-Ethoxy-2-naphthyl)-5-[(2-phenylbutanoyl)amino]benzamide] | 0.2

Other lines, results leading:

Row | IC50 [µM] | Structure (SMILES)
5 | 0.074 | CCC(C(=O)Nc1ccc(-c2cc3ccccc3s2)c(C(N)=O)c1)c1ccc2c(c1)OCCO2 (stereo not shown) [Example 35, 2-(1-Benzothien-2-yl)-5-{[2-(2,3-dihydro-1,4-benzodioxin-6-yl)butanoyl]amino}benzamide]
6 | 0.077 | CCC(C(=O)Nc1ccc(-c2cc3ccccc3s2)c(C(N)=O)c1)c1cccc(F)c1 (stereo not shown) [Example 30, 2-(1-Benzothien-2-yl)-5-{[2-(3-fluorophenyl)butanoyl]amino}benzamide]
7 | 0.064 | CCC(C(=O)Nc1ccc(-c2ccc3sccc3c2)c(C(N)=O)c1)c1ccccc1 (single isomer, unassigned) [Example 39-2, 2-(1-Benzothien-5-yl)-5-[(2-phenylbutanoyl)amino]benzamide]
